Experimental findings from patent publication US20250214990A1, “DIACYLGLYCEROL KINASE (DGK) ALPHA INHIBITORS AND USES THEREOF” (Insilico Medicine IP Limited, priority 2022, published 2025) are described below.

Where only a bound is given, the exact number is not on record here.

T1 sequence (P23743 whole entry): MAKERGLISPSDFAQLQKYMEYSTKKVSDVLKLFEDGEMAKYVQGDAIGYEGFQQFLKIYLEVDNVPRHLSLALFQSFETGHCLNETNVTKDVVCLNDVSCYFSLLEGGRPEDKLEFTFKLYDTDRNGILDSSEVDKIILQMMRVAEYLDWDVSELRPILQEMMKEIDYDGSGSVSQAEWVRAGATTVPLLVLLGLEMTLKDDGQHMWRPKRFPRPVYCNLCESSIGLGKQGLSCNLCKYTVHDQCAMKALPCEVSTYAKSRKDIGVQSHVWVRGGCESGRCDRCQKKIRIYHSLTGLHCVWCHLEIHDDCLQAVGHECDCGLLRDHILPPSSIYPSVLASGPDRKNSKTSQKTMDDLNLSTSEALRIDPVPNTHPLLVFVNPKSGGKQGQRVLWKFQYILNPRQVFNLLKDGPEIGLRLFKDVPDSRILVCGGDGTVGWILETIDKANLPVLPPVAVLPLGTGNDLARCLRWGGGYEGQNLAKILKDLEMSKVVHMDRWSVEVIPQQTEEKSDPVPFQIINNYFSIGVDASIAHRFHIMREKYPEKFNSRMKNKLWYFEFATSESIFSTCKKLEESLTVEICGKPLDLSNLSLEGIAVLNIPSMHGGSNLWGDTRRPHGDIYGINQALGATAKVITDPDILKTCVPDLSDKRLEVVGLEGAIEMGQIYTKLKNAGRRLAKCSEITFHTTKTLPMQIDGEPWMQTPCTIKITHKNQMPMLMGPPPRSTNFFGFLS

The experiment addresses T1, DGKA (Homo sapiens, UniProt P23743).
T1 construct: purchased SignalChem D21-10BG
Briefly: DGKA Inhibition ADP-Glo Assay. The format is biochemical. The conditions noted are these: 40 μM ATP. The protocol: The DGKA inhibition reactions were performed using ADP-Glo assay. The reactions were carried out in 50 mM HEPES, 100 mM NaCl, 10 mM MgCl2, 1 mM CaCl2, 0.005% TritonX-100 and 1 mM DTT as working solution (pH=7.5). 30 nL DMSO solution of each test compound (Top concentration […] with 10 point, 4-fold dilution series for each compound) were transferred to 384 well plate by Echo and 5 μL DGKA (SignalChem, D21-10BG) enzyme working solution at 2× final reaction concentration was added to each well. After incubated at 25° C. for 15 minutes, 5 μL substrate working solution contain 40 μM ATP (Promega, V915B) and 200 µM DLG (SignalChem, D430-59) were added to initiate reaction. After enzymatic reaction at 25° C. for 60 min, ADP Glo assay reagents (Promega, V9102) were added and luminescence was recorded using an EnVision following the instruction of manual. […] The IC50 value was calculated via a regression analysis of the inhibition rate.
On the technique in general: In ADP-Glo the light output rises with the ADP produced.
`Cn1c(=O)cc(N2CCOCc3c(C#CC4(C(F)(F)F)CC4)cccc32)c2nc(Cl)ccc21` [Example 1, 6-chloro-1-methyl-4-(6-((1-(trifluoromethyl)cyclopropyl)ethynyl)-2,3-dihydrobenzo[e][1,4]oxazepin-1(5H)-yl)-1,5-naphthyridin-2(1H)-one]: the IC50 (as a rule, the midpoint of a concentration-inhibition curve) is less than 1 nM.

Regarding `Cn1c(=O)cc(N2CCOCc3c(C#CC4(C(F)(F)F)CC4)cccc32)c2nc(C#N)ccc21` [Example 2, 5-methyl-6-oxo-8-(6-((1-(trifluoromethyl)cyclopropyl)ethynyl)-2,3-dihydrobenzo[e][1,4]oxazepin-1(5H)-yl)-5,6-dihydro-1,5-naphthyridine-2-carbonitrile], the IC50 was less than 1 nM.

`Cn1c(=O)nc(N2CCOCc3c(C#CC4(C(F)(F)F)CC4)cccc32)c2cc(C#N)ccc21` [Example 6, 1-methyl-2-oxo-4-(6-((1-(trifluoromethyl)cyclopropyl)ethynyl)-2,3-dihydrobenzo[e][1,4]oxazepin-1(5H)-yl)-1,2-dihydroquinazoline-6-carbonitrile] showed an IC50 of less than 1 nM.

As for `Cn1c(=O)nc(N2CCOCc3c(C#CC4(C(F)(F)F)CC4)cccc32)c2nc(Cl)ccc21` [Example 7, 6-chloro-1-methyl-4-(6-((1-(trifluoromethyl)cyclopropyl)ethynyl)-2,3-dihydrobenzol[e][1,4]oxazepin-1(5H)-yl)pyrido[3,2-d]pyrimidin-2(1H)-one], the IC50 was less than 1 nM.

`Cn1c(=O)nc(N2CCOCc3c(C#CC4(C(F)(F)F)CC4)cccc32)c2nc(C#N)ccc21` [Example 8] gave an IC50 of less than 1 nM.

On to `Cn1c(=O)nc(N2CCOCc3c(C#CC4(C(F)(F)F)CC4)cccc32)c2cc(Cl)c(NCCO)cc21` [Example 15, 6-chloro-7-((2-hydroxyethyl)amino)-1-methyl-4-(6-((1-(trifluoromethyl)cyclopropyl)ethynyl)-2,3-dihydrobenzo[e][1,4]oxazepin-1(5H)-yl)quinazolin-2(1H)-one], for which the IC50 is less than 1 nM.

On to `Cn1c(=O)nc(N2CCOCc3c(C#CC4(C(F)(F)F)CC4)cccc32)c2cc(C#N)c(NCCO)cc21` [Example 16, 7-((2-hydroxyethyl)amino)-1-methyl-2-oxo-4-(6-((1-(trifluoromethyl)cyclopropyl)ethynyl)-2,3-dihydrobenzo[e][1,4]oxazepin-1(5H)-yl)-1,2-dihydroquinazoline-6-carbonitrile], for which the IC50 was less than 1 nM.

`COCCOc1cc2c(cc1C#N)c(N1CCOCc3c(C#CC4(C(F)(F)F)CC4)cccc31)nc(=O)n2C` [Example 18, 7-(2-methoxyethoxy)-1-methyl-2-oxo-4-(6-((1-(trifluoromethyl)cyclopropyl)ethynyl)-2,3-dihydrobenzo[e][1,4]oxazepin-1(5H)-yl)-1,2-dihydroquinazoline-6-carbonitrile] came in with an IC50 of less than 1 nM.

`Cn1c(=O)nc(N2CCOCc3c(C#CC4(C(F)(F)F)CC4)cccc32)c2cc(Cl)c(O[C@H]3CCOC3)cc21` [Example 21, (S)-6-chloro-1-methyl-7-((tetrahydrofuran-3-yl)oxy)-4-(6-((1-(trifluoromethyl)cyclopropyl)ethynyl)-2,3-dihydrobenzo[e][1,4]oxazepin-1(5H)-yl)quinazolin-2(1H)-one] yielded an IC50 of less than 1 nM.

In the case of `Cn1c(=O)nc(N2CCOCc3c(C#CC4(C(F)(F)F)CC4)cccc32)c2cc(Cl)c(O[C@@H]3CCOC3)cc21` [Example 22, (R)-6-chloro-1-methyl-7-((tetrahydrofuran-3-yl)oxy)-4-(6-((1-(trifluoromethyl)cyclopropyl)ethynyl)-2,3-dihydrobenzo[e][1,4]oxazepin-1(5H)-yl)quinazolin-2(1H)-one], the IC50 was less than 1 nM.

The compound `Cn1c(=O)nc(N2CCOCc3c(C#CC4(C(F)(F)F)CC4)cccc32)c2cc(C#N)c(O[C@H]3CCOC3)cc21` [Example 23, (S)-1-methyl-2-oxo-7-((tetrahydrofuran-3-yl)oxy)-4-(6-((1-(trifluoromethyl)cyclopropyl)ethynyl)-2,3-dihydrobenzo[e][1,4]oxazepin-1(5H)-yl)-1,2-dihydroquinazoline-6-carbonitrile] came in with an IC50 of less than 1 nM.

Turning to `Cn1c(=O)nc(N2CCOCc3c(C#CC4(C(F)(F)F)CC4)cccc32)c2cc(C#N)c(O[C@@H]3CCOC3)cc21` [Example 24, (R)-1-methyl-2-oxo-7-((tetrahydrofuran-3-yl)oxy)-4-(6-((1-(trifluoromethyl)cyclopropyl)ethynyl)-2,3-dihydrobenzo[e][1,4]oxazepin-1(5H)-yl)-1,2-dihydroquinazoline-6-carbonitrile], the IC50 is less than 1 nM.

With `Cn1c(=O)nc(N2CCOCc3c(C#CC4(C(F)(F)F)CC4)cccc32)c2cc(C#N)c(OC3CCOCC3)cc21` [Example 26, 1-methyl-2-oxo-7-((tetrahydro-2H-pyran-4-yl)oxy)-4-(6-((1-(trifluoromethyl)cyclopropyl)ethynyl)-2,3-dihydrobenzo[e][1,4]oxazepin-1(5H)-yl)-1,2-dihydroquinazoline-6-carbonitrile], the IC50 was less than 1 nM.

As for `Cn1c(=O)nc(N2CCOCc3c(C#CC4(C(F)(F)F)CC4)cccc32)c2cc(Cl)c(OCCCO)cc21` [Example 27, 6-chloro-7-(3-hydroxypropoxy)-1-methyl-4-(6-((1-(trifluoromethyl)cyclopropyl)ethynyl)-2,3-dihydrobenzo[e][1,4]oxazepin-1(5H)-yl)quinazolin-2(1H)-one], the IC50 is less than 1 nM.

`Cn1c(=O)nc(N2CCOCc3c(C#CC4(C(F)(F)F)CC4)cccc32)c2cc(C#N)c(OCCCO)cc21` [Example 28, 7-(3-hydroxypropoxy)-1-methyl-2-oxo-4-(6-((1-(trifluoromethyl)cyclopropyl)ethynyl)-2,3-dihydrobenzo[e][1,4]oxazepin-1(5H)-yl)-1,2-dihydroquinazoline-6-carbonitrile] had an IC50 of less than 1 nM.

For `Cn1c(=O)nc(N2CCOCc3c(C#CC4(C)CC4)cccc32)c2cc(Cl)c(OCCO)cc21` [Example 29, 6-chloro-7-(2-hydroxyethoxy)-1-methyl-4-(6-((1-methylcyclopropyl)ethynyl)-2,3-dihydrobenzo[e][1,4]oxazepin-1(5H)-yl)quinazolin-2(11H)-one], the IC50 was less than 1 nM.

Compound `Cn1c(=O)nc(N2CCOCc3c(C#CC4(C(F)(F)F)CC4)ccnc32)c2cc(Cl)c(OCCO)cc21` [Example 30, 6-chloro-7-(2-hydroxyethoxy)-1-methyl-4-(6-((1-(trifluoromethyl)cyclopropyl)ethynyl)-2,3-dihydropyrido[2,3-e][1,4]oxazepin-1(5H)-yl)quinazolin-2(1H)-one] came in with an IC50 of less than 1 nM.

For `Cn1c(=O)nc(N2CCOCc3c(C#CC4(C(F)(F)F)CC4)cncc32)c2cc(Cl)c(OCCO)cc21` [Example 31, 6-chloro-7-(2-hydroxyethoxy)-1-methyl-4-(6-((1-(trifluoromethyl)cyclopropyl)ethynyl)-2,3-dihydropyrido[3,4-e][1,4]oxazepin-1(5H)-yl)quinazolin-2(1H)-one], the IC50 is less than 1 nM.

For the compound `Cn1c(=O)nc(N2CCOCc3c(C#CC4(C(F)(F)F)CC4)cccc32)c2cc(Cl)c(OC3CCNC3)cc21` (centres unmarked) [Example 34, 6-chloro-1-methyl-7-(pyrrolidin-3-yloxy)-4-(6-((1-(trifluoromethyl)cyclopropyl)ethynyl)-2,3-dihydrobenzo[e][1,4]oxazepin-1(5H)-yl)quinazolin-2(1H)-one], the IC50 was in the range of 1 to 10 nM.

`CN1CCC(Oc2cc3c(cc2Cl)c(N2CCOCc4c(C#CC5(C(F)(F)F)CC5)cccc42)nc(=O)n3C)C1` (centres unmarked) [Example 35, 6-chloro-1-methyl-7-((1-methylpyrrolidin-3-yl)oxy)-4-(6-((1-(trifluoromethyl)cyclopropyl)ethynyl)-2,3-dihydrobenzo[e][1,4]oxazepin-1(5H)-yl)quinazolin-2(1H)-one] registered an IC50 of 1 to 10 nM.

For the compound `Cn1c(=O)nc(N2CCOCc3ccccc32)c2cc(Cl)c(OCCO)cc21` [Example 36, 6-chloro-4-(2,3-dihydrobenzo[e][1,4]oxazepin-1(5H)-yl)-7-(2-hydroxyethoxy)-1-methylquinazolin-2(1H)-one], the IC50 fell in the range of 1 to 10 nM.

In turn, `Cn1c(=O)nc(N2CCOCc3c(C4CC4)cccc32)c2cc(Cl)c(OCCO)cc21` [Example 37, 6-chloro-4-(6-cyclopropyl-2,3-dihydrobenzo[e][1,4]oxazepin-1(5H)-yl)-7-(2-hydroxyethoxy)-1-methylquinazolin-2(1H)-one] yielded an IC50 of 1 to 10 nM.

`Cc1cccc2c1COCCN2c1nc(=O)n(C)c2cc(OCCO)c(Cl)cc12` [Example 38, 6-chloro-7-(2-hydroxyethoxy)-1-methyl-4-(6-methyl-2,3-dihydrobenzo[e][1,4]oxazepin-1(5H)-yl)quinazolin-2(11H)-one]: the IC50 lay in the range of 1 to 10 nM.

`C#Cc1cccc2c1COCCN2c1nc(=O)n(C)c2cc(OCCO)c(Cl)cc12` [Example 39, 6-chloro-4-(6-ethynyl-2,3-dihydrobenzo[e][1,4]oxazepin-1(5H)-yl)-7-(2-hydroxyethoxy)-1-methylquinazolin-2(1H)-one] gave an IC50 of less than 1 nM.

With `CC#Cc1cccc2c1COCCN2c1nc(=O)n(C)c2cc(OCCO)c(Cl)cc12` [Example 40, 6-chloro-7-(2-hydroxyethoxy)-1-methyl-4-(6-(prop-1-yn-1-yl)-2,3-dihydrobenzo[e][1,4]oxazepin-1(5H)-yl)quinazolin-2(1H)-one], the IC50 was less than 1 nM.

Consider `COc1cccc2c1COCCN2c1nc(=O)n(C)c2cc(OCCO)c(Cl)cc12` [Example 42, 6-chloro-7-(2-hydroxyethoxy)-4-(6-methoxy-2,3-dihydrobenzo[e][1,4]oxazepin-1(5H)-yl)-1-methylquinazolin-2(1H)-one], for which the IC50 was in the range of 1 to 10 nM.
